Results on 41 compounds are retold here after patent US20080269170A1, “Novel 2,4-Dianilinopyrimidine Derivatives, the Preparation Thereof, Their Use as Medicaments, Pharmaceutical Compositions and, in Particular, as IKK Inhibitors” (sanofi-aventis, priority 2005, published 2008).

As a reminder, the melting point is the temperature, or range, at which the solid turns liquid.

Where a name gives a salt, the structure may show the parent alone. Bounds are passed on as bounds.

As for `CN1C2CCC1CC(N(C)S(=O)(=O)c1ccc(Nc3nccc(Nc4ccc(F)cc4)n3)cc1)C2` (centres unmarked), the melting point is 184.5 °C.

As for `CCOP(=O)(CCN1CCC(NS(=O)(=O)c2ccc(Nc3nccc(Nc4ccc(F)c(F)c4)n3)cc2)CC1)OCC`, the melting point turned out to be 133 °C.

With `CCOP(=O)(CN1CCC(NS(=O)(=O)c2ccc(Nc3nccc(Nc4ccc(F)c(F)c4)n3)cc2)CC1)OCC`, the melting point turned out to be 137.8 °C.

`CCOP(=O)(CCN1CCC(N(C)S(=O)(=O)c2ccc(Nc3nccc(Nc4ccc(F)c(F)c4)n3)cc2)CC1)OCC` returned a melting point of 93 to 96 °C.

Regarding `CCOP(=O)(CCN1CCC(N(CCN)S(=O)(=O)c2ccc(Nc3nccc(Nc4ccc(F)c(F)c4)n3)cc2)CC1)OCC`, the melting point lay in the range of 88 to 90 °C.

Turning to `CCOP(=O)(CCN1CCC(N(CCCN)S(=O)(=O)c2ccc(Nc3nccc(Nc4ccc(F)c(F)c4)n3)cc2)CC1)OCC`, the melting point was in the range of 94 to 96 °C.

For the compound `CCOP(=O)(CCN1CCC(N(C)S(=O)(=O)c2ccc(Nc3nccc(Nc4ccc(F)cc4)n3)cc2)CC1)OCC`, the melting point is 95 to 100 °C.

On to `CCOP(=O)(CCN1CCC(N(CCN)S(=O)(=O)c2ccc(Nc3nccc(Nc4ccc(F)cc4)n3)cc2)CC1)OCC`, for which the melting point stood at 90 °C.

Compound `CCOP(=O)(CCCN1CCC(NS(=O)(=O)c2ccc(Nc3nccc(Nc4ccc(F)cc4)n3)cc2)CC1)OCC` registered a melting point of 110 °C.

Turning to `CCOP(=O)(CCN1CCC(N(CCCN)S(=O)(=O)c2ccc(Nc3nccc(Nc4ccc(F)cc4)n3)cc2)CC1)OCC`, the melting point lay within 125 to 130 °C.

In turn, `CCOP(=O)(CCN1CCC(N(CCN2CCCC2)S(=O)(=O)c2ccc(Nc3nccc(Nc4ccc(F)cc4)n3)cc2)CC1)OCC` registered a melting point of 85 °C.

As for `CC(C)(O)CNCCN(C1CCN(Cc2ccccc2)CC1)S(=O)(=O)c1ccc(Nc2nccc(Nc3ccc(F)cc3)n2)cc1` (as salt: hydrochloride), the melting point was 200 °C.

`CN(C1CCNCC1)S(=O)(=O)c1ccc(Nc2nccc(Nc3ccc(F)c(F)c3)n2)cc1` (as salt: hydrochloride): the melting point amounted to 275 °C.

Compound `Cc1cc(Nc2ccnc(Nc3ccc(S(=O)(=O)N(C)C4CCNCC4)cc3)n2)ccc1F` (as salt: hydrochloride) showed a melting point of 215 to 220 °C.

Turning to `CN1CCC(N(CCN)S(=O)(=O)c2ccc(Nc3nccc(Nc4ccc(F)cc4)n3)cc2)CC1` (as salt: hydrochloride), the melting point is 225 °C.

The compound `CN(C)CCN(C1CCNCC1)S(=O)(=O)c1ccc(Nc2nccc(Nc3ccc(F)cc3)n2)cc1` (as salt: hydrochloride) registered a melting point of 220 °C.

As to `O=S(=O)(c1ccc(Nc2nccc(Nc3ccc(F)cc3)n2)cc1)N(CCN1CCCC1)C1CCNCC1` (as salt: hydrochloride), the melting point stood at 200 °C.

Take `CCOP(=O)(CCN1CCC(N(CC2CCCN2)S(=O)(=O)c2ccc(Nc3nccc(Nc4ccc(F)cc4)n3)cc2)CC1)OCC` (centres unmarked) (as salt: hydrochloride): the melting point amounted to 185 °C.

Take `NCCN(C1CCN(Cc2ccccc2)CC1)S(=O)(=O)c1ccc(Nc2nccc(Nc3ccc(F)cc3)n2)cc1` (as salt: hydrochloride): the melting point fell in the range of 230 to 232 °C.

On to `NCCN(C1CNC1)S(=O)(=O)c1ccc(Nc2nccc(Nc3ccc(F)cc3)n2)cc1` (as salt: hydrochloride), for which the melting point is above 220 °C.

For the compound `CCNCCN(C1CCNCC1)S(=O)(=O)c1ccc(Nc2nccc(Nc3ccc(F)cc3)n2)cc1` (as salt: hydrochloride), the melting point came out at 250 °C.

With `NCCN(C1CCOCC1)S(=O)(=O)c1ccc(Nc2nccc(Nc3ccc(F)cc3)n2)cc1` (as salt: hydrochloride), the melting point turned out to be 200 °C.

Take `Cc1cc(Nc2ccnc(Nc3ccc(S(=O)(=O)N(CCN)C4CNC4)cc3)n2)ccc1F` (as salt: hydrochloride): the melting point came to 205 °C.

With `Cc1cc(Nc2ccnc(Nc3ccc(S(=O)(=O)N(CCN)C4CCN(CC(F)(F)F)CC4)cc3)n2)ccc1F` (as salt: hydrochloride), the melting point amounted to 225 °C.

The compound `CN(C1CCNCC1)S(=O)(=O)c1ccc(Nc2nccc(Nc3ccc(F)cc3)n2)cc1` (as salt: hydrochloride) [Example 8, 4-[4-(4-Fluorophenylamino)pyrimidin-2-ylamino]-N-methyl-N-piperidin-4-yl-benzenesulfonamide] yielded a melting point of 205 to 210 °C.

For the compound `NCCN(C1CCNCC1)S(=O)(=O)c1ccc(Nc2nccc(Nc3ccc(F)cc3)n2)cc1` (as salt: hydrochloride) [Example 44, N-(2-Aminoethyl)-4-[4-(4-fluorophenyl-amino)pyrimidin-2-ylamino]-N-piperidin-4-ylbenzene-sulfonamide hydrochloride], the melting point stood at 270 °C.

Compound `CNCCN(C1CCN(C)CC1)S(=O)(=O)c1ccc(Nc2nccc(Nc3ccc(F)cc3)n2)cc1` (as salt: hydrochloride) [Example 46, 4-[4-(4-Fluorophenylamino)pyrimidin-2-yl-amino]-N-(2-methylaminoethyl)-N-(1-methylpiperidin-4-yl)benzenesulfonamide hydrochloride] came in with a melting point of 220 °C.

Take `NCCCN(C1CCNCC1)S(=O)(=O)c1ccc(Nc2nccc(Nc3ccc(F)cc3)n2)cc1` (as salt: hydrochloride) [Example 92, N-(3-Aminopropyl)-4-({4-[(4-fluorophenyl)-amino]pyrimidin-2-yl}amino)-N-piperidin-4-ylbenzene-sulfonamide hydrochloride]: the melting point is 245 to 247 °C.

As for `Cc1cc(Nc2ccnc(Nc3ccc(S(=O)(=O)N(CCN)C4CCN(C)CC4)cc3)n2)ccc1F` (as salt: hydrochloride) [Example 95, N-(2-Aminoethyl)-4-({4-[(4-fluoro-3-methyl-phenyl)amino]pyrimidin-2-yl}amino)-N-(1-methylpiperidin-4-yl)benzenesulfonamide hydrochloride], the melting point amounted to 220 °C.

`O=S(=O)(c1ccc(Nc2nccc(Nc3ccc(F)cc3)n2)cc1)N(CCN1CCCC1)C1CNC1` (as salt: hydrochloride) [Example 96, N-Azetidin-3-yl-4-({4-[(4-fluorophenyl)-amino]pyrimidin-2-yl}amino)-N-(2-pyrrolidin-1-ylethyl)-benzenesulfonamide hydrochloride]: the melting point turned out to be 215 °C.

Turning to `Cc1cc(Nc2ccnc(Nc3ccc(S(=O)(=O)N(CCN4CCCC4)C4CNC4)cc3)n2)ccc1F` (as salt: hydrochloride) [Example 97, N-Azetidin-3-yl-4-({4-[(4-fluoro-3-methyl-phenyl)amino]pyrimidin-2-yl}amino)-N-(2-pyrrolidin-1-ylethyl)benzenesulfonamide hydrochloride], the melting point lay within 231 to 235 °C.

`NCCN(C1CCN(CC(F)(F)F)CC1)S(=O)(=O)c1ccc(Nc2nccc(Nc3ccc(F)cc3)n2)cc1` (as salt: hydrochloride) [Example 100, N-(2-Aminoethyl)-4-({4-[(4-fluorophenyl)-amino]pyrimidin-2-yl}amino)-N-[1-(2,2,2-trifluoro-ethyl)piperidin-4-yl]benzenesulfonamide hydrochloride] had a melting point of 240 to 245 °C.

In turn, `CN1CCC(N(C[C@@H]2CCCN2)S(=O)(=O)c2ccc(Nc3nccc(Nc4ccc(F)cc4)n3)cc2)CC1` (as salt: hydrochloride) [Example 123, 4-({4-[(4-Fluorophenyl)amino]pyrimidin-2-yl}amino)-N-(1-methylpiperidin-4-yl)-N-[(2S)-pyrrolidin-2-ylmethyl]benzenesulfonamide] gave a melting point of 200 °C.

The compound `CN1CCC(N(C[C@H]2CCCN2)S(=O)(=O)c2ccc(Nc3nccc(Nc4ccc(F)cc4)n3)cc2)CC1` (as salt: hydrochloride) [Example 124, 4-({4-[(4-Fluorophenyl)amino]pyrimidin-2-yl}amino)-N-(1-methylpiperidin-4-yl)-N-[(2R)-pyrrolidin-2-ylmethyl]benzenesulfonamide] gave a melting point of 200 °C.

In turn, `CN1CCC(N(CC2CCCO2)S(=O)(=O)c2ccc(Nc3nccc(Nc4ccc(F)cc4)n3)cc2)CC1` (racemic) [Example 154] came in with a melting point of 189 °C.

Take `CN1CCC(N(C)S(=O)(=O)c2ccc(Nc3nccc(Nc4ccc(F)cc4)n3)cc2)CC1` [Example 1, 4-[4-(4-Fluorophenylamino)pyrimidin-2-ylamino]-N-methyl-N-(1-methylpiperidin-4-yl)benzenesulfonamide]: the melting point was 205 to 210 °C.

With `O=C(CNS(=O)(=O)c1ccc(Nc2nccc(Nc3ccc(F)cc3)n2)cc1)NC1CCOCC1` [Example 2, 2-{4-[4-(4-Fluorophenylamino)pyrimidin-2-ylamino]benzenesulfonylamino}-N-(tetrahydropyran-4-yl)-acetamide], the melting point fell in the range of 253 to 254 °C.

As to `CN(C1CCN(Cc2ccccc2)CC1)S(=O)(=O)c1ccc(Nc2nccc(Nc3ccc(F)cc3)n2)cc1` [Example 3, N-(1-Benzylpiperidin-4-yl)-4-[4-(4-fluoro-phenylamino)pyrimidin-2-ylamino]-N-methylbenzene-sulfonamide], the melting point lay within 186 to 190 °C.

Regarding `CN1CCC(N(C)S(=O)(=O)c2ccc(Nc3nccc(Nc4ccc(F)cc4)n3)cc2)C1` (centres unmarked) [Example 5, 4-[4-(4-Fluorophenylamino)pyrimidin-2-yl-amino]-N-methyl-N-(1-methylpyrrolidin-3-yl)benzene-sulfonamide], the melting point fell in the range of 177 to 181 °C.

Take `CN(C1CCS(=O)(=O)C1)S(=O)(=O)c1ccc(Nc2nccc(Nc3ccc(F)cc3)n2)cc1` (centres unmarked) [Example 6, N-(1,1-Dioxotetrahydro-1λ^6-thiophen-3-yl)-4-[4-(4-fluorophenylamino)pyrimidin-2-ylamino]-N-methyl-benzenesulfonamide]: the melting point fell in the range of 236 to 240 °C.

Consider `CN(C1CCN(Cc2ccccn2)CC1)S(=O)(=O)c1ccc(Nc2nccc(Nc3ccc(F)cc3)n2)cc1` [Example 9, 4-[4-(4-Fluorophenylamino)pyrimidin-2-ylamino]-N-methyl-N-(1-pyridin-2-ylmethylpiperidin-4-yl)benzenesulfonamide], for which the melting point is 202 to 204 °C.
